# Assay results: patent US5652353A, “DNAs encoding tumor necrosis factor-α muteins” (priority 1990, dated 1997)
# Legend:
# Hep-2 cells = type: cell-based, human; conditions: in words; accuracy of assay a factor of 3
# Protocol: (§1) The amount of protein was determined by the Biorad (Richmond, Calif., USA) protein dye reagent according to the instructions of the manufacturer. The purity of the TNF muteins was determined by SDS-PAGE. The cytotoxic activity on mouse L929 cells was determined using the standard L929 assay (Ruff and Gifford in "Lymphokines", ed. by E. Pick, Vol. 2, 235-275, Academic Press, 1981, Orlando, USA). The cytotoxicity assay on Hep-2 cells was performed the same way as the L929 assay with the only exception that cycloheximide (50 μg/ml) was added instead of actinomycin D.
# human p75-TNF-R = assay: Filter binding competition of 125I-TNFα on purified p75-TNF-R from HL60 cells; conditions: for IC50: competition with 125I-TNFα; for Decrease in Affinity: with respect to TNFα
# Protocol: (§2) The filters were blocked with blocking buffer (50 mM Tris, 140 mM NaCl, 5 mM EDTA, 0.02% NaN3, 1% defatted milk powder) for 1.5 hours at room temperature. […] The filters were washed with blocking buffer (2× for 5 min.) and with H2 O (1× for 5 min.), air dried, and counted in a γ-counter.
# human p55-TNF-R = assay: Filter binding competition of 125I-TNFα on purified p55-TNF-R from HL60 cells; conditions: with respect to TNFα
# Protocol: as §2
# mouse L929 cells = assay: Standard L929 cytotoxicity assay; type: cell-based; conditions: relative to TNF-α
# Protocol: as §1
# [1] = test system: U937 cells (predominantly but not exclusively p75-TNF-R); assay: Competition analysis: displacement of 125I-TNF-α by unlabeled mutant TNF on U937 cells; type: binding, human; conditions: for reduction of binding affinity for p75-TNF-R: relative to its binding affinity to p55-TNF-R
# Protocol: (§3) Hep-2 [ATCC No. CCL 23], U937 [ATCC No. CRL 1593] and RAJI [ATCC No. CCL 86] cells were grown in RPMI 1640 medium, supplemented with 10% (v/v) inactivated .fetal calf serum, L-glutamine (2 mM), sodium pyruvate (1 mM), 2-mercaptoethanol (5×10^-5 M), 1% of a 100× mixture of non-essential amino acids [Gibro Laboratories, Paisley, GB] and gentamycine ([…]). The non-adherent cells (U937 and RAJI) were harvested after reaching a density of 1×10^6 cells/ml. For binding experiments, the adherent Hep-2 cells were grown to confluency, trypsinized, collected and seeded in large. Petri dishes (150 cm^2) at a density of 2.5×10^6 cells/ml. Subsequently, the dishes were placed in a CO2 -incubator overnight. Because Hep-2 cells are not strongly adherent, the cells could be harvested the same way as the non-adherent cells. Dulbecco's medium, supplemented with 10% inactivated newborn calf serum was used for L929 cell growth. […] A ten well dilution series of unlabeled mutant TNF ([…] to 0.004 μM) in concentration steps in multiples of 2 was set up in a microtiterplate. […] After addition of 2×10^6 cells, the total volume was 0.2 ml/well. The medium of incubation, reaction conditions and isolation of the cells were exactly the same as described above for the Scatchard analysis experiments. […] The following experimental data were used for such calculations: From each experiment shown in these tables, the KD value was calculated using the programm of Mc. Pherson et al. (1985).
# [2] = test system: Hep-2 cells (only carry p55-TNF-R); assay: Competition analysis: displacement of 125I-TNF-α by unlabeled mutant TNF on Hep-2 cells; type: binding, human; conditions: for Mean dpm: Table C
# Protocol: as §3
substance,measurement,setting,value
"Ser^29 -TNFα: TNF-α mutein with serine substituted at position 29, SEQ ID No: 4",biological activity (specific activity) on Hep-2 cells,Hep-2 cells,largely retained
same,IC50,human p75-TNF-R,2.5 µg/mL
same,Decrease in Affinity,human p75-TNF-R,250 fold
same,Decrease in Affinity,human p55-TNF-R,8.2 fold
same,decrease of biological activity on L929 cells (factor),mouse L929 cells,more than 100
same,binding affinity for p75-TNF-R as share of its binding affinity to p55-TNF-R,[1],about 2%
same,Mean dpm,"[1]; Table A, experiment 1, U937 cells, concentration of mutant 1 × 10^-6 [mol]",632 dpm
same,Mean dpm,"[1]; Table A, experiment 1, U937 cells, concentration of mutant 1 × 10^-9 [mol]",1869 dpm
same,Mean dpm,"[1]; Table A, experiment 1, U937 cells, concentration of mutant 1.25 × 10^-7 [mol]",1200 dpm
same,Mean dpm,"[1]; Table A, experiment 1, U937 cells, concentration of mutant 2 × 10^-6 [mol]",533 dpm
same,Mean dpm,"[1]; Table A, experiment 1, U937 cells, concentration of mutant 2 × 10^-9 [mol]",1779 dpm
same,Mean dpm,"[1]; Table A, experiment 1, U937 cells, concentration of mutant 3.2 × 10^-8 [mol]",1415 dpm
same,Mean dpm,"[1]; Table A, experiment 1, U937 cells, concentration of mutant 4 × 10^-9 [mol]",1719 dpm
same,Mean dpm,"[1]; Table A, experiment 1, U937 cells, concentration of mutant 5 × 10^-7 [mol]",949 dpm
same,Mean dpm,"[1]; Table A, experiment 1, U937 cells, concentration of mutant 6.4 × 10^-8 [mol]",1320 dpm
same,Mean dpm,"[1]; Table A, experiment 1, U937 cells, concentration of mutant 8 × 10^-9 [mol]",1708 dpm
same,Mean dpm,"[1]; Table A, experiment 1, U937 cells, concentration of mutant […] 10^-7 [mol]",983 dpm
same,Mean dpm,"[1]; Table A, experiment 1, U937 cells, concentration of mutant […] 10^-8 [mol]",1575 dpm
same,Mean dpm,"[1]; Table A, experiment 2, U937 cells, concentration of mutant 1 × 10^-6 [mol]",263 dpm
same,Mean dpm,"[1]; Table A, experiment 2, U937 cells, concentration of mutant 1.2 × 10^-7 [mol]",413 dpm
same,Mean dpm,"[1]; Table A, experiment 2, U937 cells, concentration of mutant 1.5 × 10^-8 [mol]",541 dpm
same,Mean dpm,"[1]; Table A, experiment 2, U937 cells, concentration of mutant 2 × 10^-6 [mol]",238 dpm
same,Mean dpm,"[1]; Table A, experiment 2, U937 cells, concentration of mutant 3 × 10^-8 [mol]",572 dpm
same,Mean dpm,"[1]; Table A, experiment 2, U937 cells, concentration of mutant 4 × 10^-9 [mol]",635 dpm
same,Mean dpm,"[1]; Table A, experiment 2, U937 cells, concentration of mutant 5 × 10^-7 [mol]",319 dpm
same,Mean dpm,"[1]; Table A, experiment 2, U937 cells, concentration of mutant 6 × 10^-8 [mol]",489 dpm
same,Mean dpm,"[1]; Table A, experiment 2, U937 cells, concentration of mutant 8 × 10^-9 [mol]",603 dpm
same,Mean dpm,"[1]; Table A, experiment 2, U937 cells, concentration of mutant […] 10^-7 [mol]",380 dpm
same,reduction of binding affinity for p75-TNF-R,[1],approximately 50 fold
same,Mean dpm,"[2]; experiment 1, Hep-2 cells, concentration of mutant 1 × 10^-6",359 dpm
same,Mean dpm,"[2]; experiment 1, Hep-2 cells, concentration of mutant 1 × 10^-9",799 dpm
same,Mean dpm,"[2]; experiment 1, Hep-2 cells, concentration of mutant 1.25 × 10^-7",379 dpm
same,Mean dpm,"[2]; experiment 1, Hep-2 cells, concentration of mutant 2 × 10^-6",383 dpm
same,Mean dpm,"[2]; experiment 1, Hep-2 cells, concentration of mutant 2 × 10^-9",677 dpm
same,Mean dpm,"[2]; experiment 1, Hep-2 cells, concentration of mutant 3.2 × 10^-8",442 dpm
same,Mean dpm,"[2]; experiment 1, Hep-2 cells, concentration of mutant 4 × 10^-9",564 dpm
same,Mean dpm,"[2]; experiment 1, Hep-2 cells, concentration of mutant 5 × 10^-7",437 dpm
same,Mean dpm,"[2]; experiment 1, Hep-2 cells, concentration of mutant 6.4 × 10^-8",446 dpm
same,Mean dpm,"[2]; experiment 1, Hep-2 cells, concentration of mutant 8 × 10^-9",510 dpm
same,Mean dpm,"[2]; experiment 1, Hep-2 cells, concentration of mutant […] 10^-7",374 dpm
same,Mean dpm,"[2]; experiment 1, Hep-2 cells, concentration of mutant […] 10^-8",451 dpm
same,Mean dpm,"[2]; experiment 2, Hep-2 cells, concentration of mutant 1 × 10^-6",193 dpm
same,Mean dpm,"[2]; experiment 2, Hep-2 cells, concentration of mutant 1.2 × 10^-7",239 dpm
same,Mean dpm,"[2]; experiment 2, Hep-2 cells, concentration of mutant 1.5 × 10^-8",253 dpm
same,Mean dpm,"[2]; experiment 2, Hep-2 cells, concentration of mutant 2 × 10^-6",238 dpm
same,Mean dpm,"[2]; experiment 2, Hep-2 cells, concentration of mutant 3 × 10^-8",235 dpm
same,Mean dpm,"[2]; experiment 2, Hep-2 cells, concentration of mutant 4 × 10^-9",273 dpm
same,Mean dpm,"[2]; experiment 2, Hep-2 cells, concentration of mutant 5 × 10^-7",211 dpm
same,Mean dpm,"[2]; experiment 2, Hep-2 cells, concentration of mutant 6 × 10^-8",207 dpm
same,Mean dpm,"[2]; experiment 2, Hep-2 cells, concentration of mutant 8 × 10^-9",240 dpm
same,binding constant (KD) with Hep-2 cells compared with TNF-α,[2]; in words,almost the same as TNF-α
"Trp^32 -TNFα: TNF-α mutein with tryptophan substituted at position 32, SEQ ID No: 9",biological activity (specific activity) on Hep-2 cells,Hep-2 cells,largely retained
same,IC50,human p75-TNF-R,5 µg/mL
same,Decrease in Affinity,human p75-TNF-R,500 fold
same,Decrease in Affinity,human p55-TNF-R,1.5 fold
same,decrease of biological activity on L929 cells (factor),mouse L929 cells,more than 100
same,binding affinity for p75-TNF-R as share of its binding affinity to p55-TNF-R,[1],about 3%
same,Mean dpm,"[1]; Table B, experiment 1, U937 cells, concentration of mutant 1 × 10^-6",777 dpm
same,Mean dpm,"[1]; Table B, experiment 1, U937 cells, concentration of mutant 1 × 10^-9",1917 dpm
same,Mean dpm,"[1]; Table B, experiment 1, U937 cells, concentration of mutant 1.25 × 10^-7",1166 dpm
same,Mean dpm,"[1]; Table B, experiment 1, U937 cells, concentration of mutant 1.5 × 10^-8",1488 dpm
same,Mean dpm,"[1]; Table B, experiment 1, U937 cells, concentration of mutant 2 × 10^-6",628 dpm
same,Mean dpm,"[1]; Table B, experiment 1, U937 cells, concentration of mutant 2 × 10^-9",1698 dpm
same,Mean dpm,"[1]; Table B, experiment 1, U937 cells, concentration of mutant 3 × 10^-8",1377 dpm
same,Mean dpm,"[1]; Table B, experiment 1, U937 cells, concentration of mutant 4 × 10^-9",1655 dpm
same,Mean dpm,"[1]; Table B, experiment 1, U937 cells, concentration of mutant 5 × 10^-7",953 dpm
same,Mean dpm,"[1]; Table B, experiment 1, U937 cells, concentration of mutant 6 × 10^-8",1333 dpm
same,Mean dpm,"[1]; Table B, experiment 1, U937 cells, concentration of mutant 8 × 10^-9",1585 dpm
same,Mean dpm,"[1]; Table B, experiment 1, U937 cells, concentration of mutant […] 10^-7",1026 dpm
same,Mean dpm,"[1]; Table B, experiment 2, U937 cells, concentration of mutant 1.10^-6",357 dpm
same,Mean dpm,"[1]; Table B, experiment 2, U937 cells, concentration of mutant 1.2 × 10^-7",508 dpm
same,Mean dpm,"[1]; Table B, experiment 2, U937 cells, concentration of mutant 1.5 × 10^-8",636 dpm
same,Mean dpm,"[1]; Table B, experiment 2, U937 cells, concentration of mutant 2 × 10^-6",294 dpm
same,Mean dpm,"[1]; Table B, experiment 2, U937 cells, concentration of mutant 3 × 10^-8",585 dpm
same,Mean dpm,"[1]; Table B, experiment 2, U937 cells, concentration of mutant 4 × 10^9",653 dpm
same,Mean dpm,"[1]; Table B, experiment 2, U937 cells, concentration of mutant 5 × 10^-7",422 dpm
same,Mean dpm,"[1]; Table B, experiment 2, U937 cells, concentration of mutant 6 × 10^-8",546 dpm
same,Mean dpm,"[1]; Table B, experiment 2, U937 cells, concentration of mutant 8 × 10^-9",629 dpm
same,Mean dpm,"[1]; Table B, experiment 2, U937 cells, concentration of mutant […] 10^-7",479 dpm
same,Mean dpm,"[1]; Table B, experiment 3 (125I-TNF batch 2), U937 cells, concentration of mutant 1 × 10^-6",1192 dpm
same,Mean dpm,"[1]; Table B, experiment 3 (125I-TNF batch 2), U937 cells, concentration of mutant 1.25 × 10^-7",2387 dpm
same,Mean dpm,"[1]; Table B, experiment 3 (125I-TNF batch 2), U937 cells, concentration of mutant 1.5 × 10^-8",3620 dpm
same,Mean dpm,"[1]; Table B, experiment 3 (125I-TNF batch 2), U937 cells, concentration of mutant 2 × 10^-6",814 dpm
same,Mean dpm,"[1]; Table B, experiment 3 (125I-TNF batch 2), U937 cells, concentration of mutant 3 × 10^-8",3275 dpm
same,Mean dpm,"[1]; Table B, experiment 3 (125I-TNF batch 2), U937 cells, concentration of mutant 4 × 10^-9",4759 dpm
same,Mean dpm,"[1]; Table B, experiment 3 (125I-TNF batch 2), U937 cells, concentration of mutant 5 × 10^-7",1472 dpm
same,Mean dpm,"[1]; Table B, experiment 3 (125I-TNF batch 2), U937 cells, concentration of mutant 6 × 10^-8",3034 dpm
same,Mean dpm,"[1]; Table B, experiment 3 (125I-TNF batch 2), U937 cells, concentration of mutant 8 × 10^-9",4041 dpm
same,Mean dpm,"[1]; Table B, experiment 3 (125I-TNF batch 2), U937 cells, concentration of mutant […] 10^-7",1981 dpm
same,reduction of binding affinity for p75-TNF-R,[1],approximately 33 fold
